This is an account of results in patent publication US11986489B2, “Method of treating a disease using a glycolytic dependent compound” (Ethicon, Inc., priority 2015, dated 2024).

For orientation: half-life means how long it takes for the measured level to halve.

Structures are written as SMILES. Where a name gives a salt, the structure may show the parent alone. Read-outs that look alike come from different tables or passages of the source.

Data set [1] is described as follows: WST-1 viability of NHDF cells treated with Dox with or without ORC. Type of data set: cell-based, Human. Particulars: human, NHDF cells (normal human dermal fibroblasts), NHDF cells, 16-18 hours, WST-1; for cytotoxicity at 5 μM: Dox 5 μM; for cytotoxicity at 25 μM: Dox 25 μM; for cytotoxicity at 50 μM: Dox 50 μM. The protocol:
(§1) NU-KNIT® (ORC) patch: NU-KNIT® was cut with an 8 mm punch to form 8 mm circles of Nuknit. These circles were then cut into 4 quarters using sterile scissors (each quarter has a weight of 2.2-2.7 mg, Average 2.44 mg, n=10).
(§2) Day 1: Two 24-well plates were seeded with 15,000 NHDF cells/well using a 15,000 cells/ml suspension according to the plate layout below (representing about 20%-30% confluency of cells).
(§3) The plates were incubated overnight, for 16-18 hours, in a water jacketed 37° C. incubator with 5% CO2.
(§4) The cells at this stage were about 40%-50% confluent.
(§5) Immediately, a NuKnit® ¼ punch was added to the wells according to the plate layout.
(§6) Day 3: The untreated cells at this stage were about 60%-70% confluent. The plate's medium was decanted and replaced with 0.5 ml of Growth medium. 50 μl of WST-1 were added to each well. The plates were then incubated for an additional 4 hours.
(§7) The plates were then read with an ELISA reader at 450 nm and 650 nm Optical Density (OD). Wells containing medium with no cells were used as blank.
(§8) The results obtained by ELISA reader at 650 nm were subtracted from the results obtained at 450 nm per each well separately=sample OD.
(§9) The relative viability of the rest of the wells was calculated according to the following calculation: sample OD/untreated OD×100. The results were depicted in FIG. 2.
(§10) The following experiment was set in order to evaluate the effect of ORC on Doxorubicin activity on Normal Human Dermal Fibroblast (NHDF) cells. Doxorubicin activity will be expressed in relative cell viability compared to untreated cells. […] The final viability of the cells was evaluated with WST-1 staining. WST-1 is a Tetrazolium salts that is only cleaved to Formazan in metabolically active intact cells.
On the technique in general: Formazan colour is commonly taken as a measure of viable cells.

Data set [2] has as its system Normal Human Dermal Fibroblast (NHDF) cells. Described as above. Type of data set: cell-based. Conditions: for Potency increase of Dox in the presence of ORC: with ORC divided by without ORC. The protocol:
as §1, §2, §3, §4, §5, §6, §7, §8, §9, §10

For data set [3] the following is noted: human, in vivo. The source says: Clinically, a half-life of a given compound is the amount of time required for the compound to fall e.g. in the circulation to half its initial administered dose i.e. how long it takes for the body to remove half of the administered dose. Typically, compounds are active for a multiple of their half-life, for example, five times the half-life can be used to describe the time period for a therapy's treatment. In the case of many therapies, this translates into days where the drug is having an effect on targeted tissues. All clinically used and approved drugs will have well described time ranges and amounts for calculating dose and therapy plans. In one embodiment, the performance of the compound in addressing the underlying pathology e.g. malignancy is adjusted in view of the presence of ORC, and/or OC that can localize the therapy at the target site during the limited time the compound is in the body and before it is being processed.
In certain embodiments a “therapeutically effective dose” refers to the median effective dose ED50, for a particular know drug. […] Mean: 1-3 hours. Typically, 5 times the elimination half-life will give the time at which point the drug has been completely eliminated from the body. For Doxorubicin this would be 5-15 hours.

The conditions of data set [4]: in vivo; cited from earlier work.
Setting [5] is: with ORC (¼ Nuknit of 8 mm), read-out: With ORC relative reduction of viability (%).
[6] abbreviates: without ORC, read-out: Without ORC relative reduction of viability (%).

Consider `COc1cccc2c1C(=O)c1c(O)c3c(c(O)c1C2=O)C[C@@](O)(C(=O)CO)C[C@@H]3O[C@H]1C[C@H](N)[C@H](O)[C@H](C)O1` [Dox, Doxorubicin hydrochloride], for which, in data set [1] (setting [5]), the cytotoxicity at 5 μM was about 55%, the cytotoxicity at 25 μM is about 74% and the cytotoxicity at 50 μM was 80%. In data set [1] (setting [6]), the cytotoxicity at 5 μM was about 30%, the cytotoxicity at 25 μM is about 40% and the cytotoxicity at 50 μM amounted to 65%. Further, the “Potency increase of Dox in the presence of ORC” value (“Potency increase of Dox” below) in data set [2] (Dox 5 μM) came to 1.89. Also, in data set [2] (Dox 25 μM), the “Potency increase of Dox” value amounted to 1.83. The “Potency increase of Dox” value in data set [2] (Dox 50 μM) was 1.24. For the same molecule, the “Dox concentration at which the viability reduction is already evident” value in data set [2] (NHDF cells, in the absence of ORC) is 5.0 µM. Also, the “Effect of Dox on the viability of NHDF cells” value in data set [2] (in the absence of ORC) is on record as “reduces the viability of NHDF cells, in the absence of ORC in a dose dependent manner”. For the same molecule, in data set [3], the “time at which the drug has been completely eliminated from the body” value lay in the range of 5 to 15 h. In addition, in data set [4], the “biological half-life, mean” value is 1-3 hours and the “biological half-life, triphasic, third phase” value was 30 hours.
`CO[C@H]1C[C@@H]2CC[C@@H](C)[C@@](O)(O2)C(=O)C(=O)N2CCCC[C@H]2C(=O)O[C@H]([C@H](C)C[C@@H]2CC[C@@H](OCCO)[C@H](OC)C2)CC(=O)[C@H](C)/C=C(\C)[C@@H](O)[C@@H](OC)C(=O)[C@H](C)C[C@H](C)/C=C/C=C/C=C/1C` [Everolimus]: in data set [4], the half-life entry is “about 30 hours”.
Consider `Cc1ccc(Nc2nccc(N(C)c3ccc4c(C)n(C)nc4c3)n2)cc1S(N)(=O)=O` [Pazopanib], for which, in data set [4], the half-life result is on record as “about 31 hours”.
Turning to `CNC(=O)c1cc(Oc2ccc(NC(=O)Nc3ccc(Cl)c(C(F)(F)F)c3)cc2)ccn1` [Sorafenib], in data set [4], the half-life is 20 to 27 h.
With `CCN(CC)CCNC(=O)c1c(C)[nH]c(/C=C2\C(=O)Nc3ccc(F)cc32)c1C` [Sunitinib], in data set [4], the half-life is 41 to 86 h.
As to `CO[C@H]1C[C@@H]2CC[C@@H](C)[C@@](O)(O2)C(=O)C(=O)N2CCCC[C@H]2C(=O)O[C@H]([C@H](C)C[C@@H]2CC[C@@H](OC(=O)C(C)(CO)CO)[C@H](OC)C2)CC(=O)[C@H](C)/C=C(\C)[C@@H](O)[C@@H](OC)C(=O)[C@H](C)C[C@H](C)/C=C/C=C/C=C/1C` [Temsirolimus], the half-life entry in data set [4] was “about 17.3 hours”.
